Source: patent US9309187B2, “EP2 receptor agonists” (TAKEDA GMBH, priority 2012, dated 2016)

Tests used:
[1] = system: plasma TNFα after i.v. LPS; assay: In vivo assay: LPS-induced TNFα release in mice; design: species or system C57BL/6 mice; conditions: Mus musculus; p.o. 1 h prior to i.v. LPS 100 μg/kg; plasma TNFα 1 h after LPS
Description: In Vivo Assay: LPS-Induced TNFα Release in Mice
(§1) Intravenously administration of lipopolysaccharide (LPS) causes a systemic inflammation characterised by release of pro-inflammatory cytokines, e.g. tumor necrosis factor alpha (TNFα). Selective EP2 agonists are administered per oral 1 h prior intravenously LPS challenge in mice. The anti-inflammatory activity of the selective EP2 agonists is assessed based on TNFα levels in blood plasma 1 h after LPS challenge.
Female C57BL/6 mice weighing 20-25 g were used. Mice were delivered 1 week prior to the experiments and had free access to water and food.
The test compound was mixed with 1.33% polyethylenglycol 400 (PEG400, Merck, Darmstadt, Germany) and subsequently suspended in 2% methocel solution (hypromellose, Sigma, Steinheim, Germany) using the Covaris S2X System (K Biosciences Ltd.; Hoddesdon; United Kingdom). The aimed doses were prepared by dilution series from the stock suspension, which was prepared for the administration of the highest dose in each experiment.
(§2) The administered volume of the compound suspension is 10 mL/kg. On day of the experiment the mouse body weights were documented to calculate the volume to be administered. LPS challenged control animals received drug-free vehicle solution as placebo. Test compounds and vehicle were administered by oral gavage 1 h prior to LPS challenge.
(§3) LPS (from Escherichia coli 055:B5, Sigma, Steinheim, Germany) was solubilised in 0.9% sterile NaCl solution (B. Braun Melsungen AG, Melsungen, Germany) containing 0.1% hydroxylamine (Sigma, Steinheim, Germany). LPS is intravenously (i.v.) injected at a dose of 100 μg/kg (5 mL/kg b.w.) 1 h after compound or vehicle administration.
(§4) One hour after LPS-challenge, the animals were sacrificed by inhalative isoflurane anaesthesia and heparinised blood was obtained by retroorbital bleeding. Blood was centrifuged (21,000×g, 4° C., 10 min), and plasma samples were kept frozen at −20° C. until determination of TNFα levels by ELISA. TNFα was measured with a commercially available ELISA-Kit (Quantikine® Immunoassay Mouse TNFα, R&D Systems, Minneapolis, USA).
(§5) The compound effect on TNFα release was calculated individually in percent (%) for each compound treated animal in relation to the mean TNFα level of the vehicle treated LPS-challenged control group: % effect=(Y−K)/K*100 • with defining: • Y=plasma TNFα concentration of the compound treated animal • K=mean plasma TNFα concentration of the vehicle treated group
Statistical analysis was performed on the primary TNFα concentrations by One-Way ANOVA and Dunnett's Multiple Comparison test vs. vehicle-treated control group.

[2] = system: plasma TNFα after i.v. LPS; assay: In vivo assay: LPS-induced TNFα release in rats; design: species or system Sprague Dawley rats; conditions: Rattus norvegicus; p.o. 1 h prior to i.v. LPS 20 μg/kg; plasma TNFα 1 h after LPS
Description: In Vivo Assay: LPS-Induced TNFα Release in Rats
as §1, with “rats.” for “mice.”, “exposure.” for “challenge.”
Male Sprague Dawley rats weighing 250-300 g were used. Rats were delivered 1 week prior to the experiments and had free access to water and food.
The test compound was mixed with 1.33% polyethylenglycol 400 (PEG400, Merck, Darmstadt, Germany) and subsequently suspended in 2% methocel solution (hypromellose, Sigma, Steinheim, Germany) containing Antifoam C Emulsion (Sigma, Steinheim, Germany, 0.1 mL/15 mL) using a mixing device (ULTRA-TURRAX T8 basic, VDI12, VWR International GmbH). The aimed doses were prepared by dilution series from the stock suspension, which was prepared for the administration of the highest dose in each experiment.
as §2, with “rat” for “mouse”
as §3, with “20” for “100”, “(1” for “(5”
as §4, with “isofluran” for “isoflurane”, “subsequently cervical dislocation. Heparinised” for “heparinised”, “heart puncture.” for “retroorbital bleeding.”, “(Quantikine®, Rat TNFα/TNFSF1A,” for “(Quantikine® Immunoassay Mouse TNFα,”
as §5
Statistical analysis was performed on the primary TNFα concentrations by One-Way ANOVA and Dunnett's Multiple Comparison test vs. vehicle treated control group.

[3] = target: T1, human prostanoid receptor EP2 (Homo sapiens, UniProt P43116); assay: EP2 cAMP release assay in CHOp6CreLuc-huEP2 cells (CRE-luciferase readout); type: cell-based; conditions: CHOp6CreLuc-huEP2 cells, 4 hours at 37° C.; reported as range bins; read-out: EP2 cAMP release assay pEC50 (-log EC50) (converted)
T1 construct: expressed in transfected cells; host or cells: CHO-K1 (CHOp6CreLuc-huEP2)
T1 sequence (P43116 whole entry): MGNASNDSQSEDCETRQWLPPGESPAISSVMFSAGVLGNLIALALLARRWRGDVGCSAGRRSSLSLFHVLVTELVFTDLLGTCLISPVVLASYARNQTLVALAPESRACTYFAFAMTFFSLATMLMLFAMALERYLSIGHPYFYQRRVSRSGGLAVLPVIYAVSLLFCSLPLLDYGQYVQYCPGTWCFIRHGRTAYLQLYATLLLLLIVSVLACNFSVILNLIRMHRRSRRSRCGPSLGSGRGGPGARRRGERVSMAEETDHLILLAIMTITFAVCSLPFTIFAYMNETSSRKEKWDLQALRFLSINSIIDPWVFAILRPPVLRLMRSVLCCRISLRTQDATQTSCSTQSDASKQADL
Description: Method for Measuring cAMP Release in Human EP2 Stably Transfectant Cells:
The potency and efficacy of EP2 agonists have been determined via measuring cAMP release in stably transfectant CHO-K1 cell expressing the human prostanoid receptor EP2 and luciferase enzyme regulated via a 6 times CRE (cAMP response element) containing transcriptional promoter. CHOp6CreLuc-huEP2 cells were seeded into 384-well plate (1000 cells per well) in DMEM/F12 (Dulbecco's Modified Eagle Medium/Nutrient Mixture F12) cell culture medium containing 2% FCS (Fetal Calf Serum) and 500 μg/ml G418 24 hours prior to the experiment. Test compound was added as serial dilutions while keeping the final DMSO concentration constant in each well. […] Cells were incubated together with test compound or butaprost for 4 hours at 37° C. The cAMP release was determined indirectly via luciferase activity that directly correlated to the amount of luciferase enzyme expressed in response to cAMP regulated promoter activity. The luciferase activity was determined by addition of luciferin containing buffer and subsequent quantification of resulting luminescence. Each sample was measured in quadruplicates per experiment and half-maximal effective concentration (EC50) and relative maximal effect compared to butaprost was determined from 3 independent experiments with GraphPad Prism Software. A compound that achieved over 80% of the maximal effect of butaprost was considered as full agonist.
For the following compounds the potency was determined in the cAMP release assay applying human EP2 transfectant CHOp6CreLuc-huEP2 cells. […] The numbers of the compounds correspond to the examples numbers.
EP2 cAMP Release Assay: pEC50

SMILES	ED50 [1] [mg/kg]	ED50 [2] [mg/kg]	EC50 [3] [nM]
O=C(O)/C=C/c1cccc(NC(=O)c2cc(-c3ccccc3)cc3ccccc23)c1 [Example 1, (2E)-3-(3-{[(3-phenylnaphthalen-1-yl)carbonyl]amino}phenyl)prop-2-enoic acid]	0.1 to 3	0.1 to 3	0.00631 to 0.1
O=C(O)/C=C/c1ccc(F)c(NC(=O)c2cc(-c3ccccc3)cc3ccccc23)c1 [Example 2, (2E)-3-(4-fluoro-3-{[(3-phenylnaphthalen-1-yl)carbonyl]amino}phenyl)prop-2-enoic acid]	0.1 to 3	0.1 to 3	0.00631 to 0.1
O=C(O)/C=C/c1ccc(Cl)c(NC(=O)c2cc(-c3ccccc3)cc3ccccc23)c1 [Example 3, (2E)-3-(4-chloro-3-{[(3-phenylnaphthalen-1-yl)carbonyl]amino}phenyl)prop-2-enoic acid]	0.1 to 3	0.1 to 3	0.00631 to 0.1
O=C(O)/C=C/c1ccc(F)c(NC(=O)c2cc(-c3ccccc3F)cc3ccccc23)c1 [Example 9, (2E)-3-{3-[({3-[2-fluorophenyl]naphthalen-1-yl}carbonyl)amino]-4fluorophenyl}prop-2-enoic acid]	0.1 to 3	0.1 to 3	0.00631 to 0.1
O=C(O)/C=C/c1ccc(F)c(NC(=O)c2cc(-c3cccc(F)c3)cc3ccccc23)c1 [Example 10, (2E)-3-{3-[({3-[3-fluorophenyl]naphthalen-1-yl}carbonyl)amino]-4fluorophenyl}prop-2-enoic acid]	0.1 to 3	0.1 to 3	0.00631 to 0.1
